Source: the supplement of paper PMC10307832

Key:
Assay in all cases: relative viability (nuclei count vs DMSO), 5 days (fraction); higher = more cells survive
TGX 221 + Palbociclib = compound: CC1=CN2C(=O)C=C(N=C2C(=C1)C(C)NC3=CC=CC=C3)N4CCOCC4 [TGX 221] + CC(=O)c1c(C)c2cnc(Nc3ccc(N4CCNCC4)cn3)nc2n(C2CCCC2)c1=O [Palbociclib] (partner 0.5 µM)
Outline: (§1)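 Lung cancer cell lines, seeded in 1536-well plates, were treated the following day by pin tool with a single drug or with five library-drug doses (not always all listed) in √10 steps on top of a fixed anchor-drug dose. Cells were fixed and nuclei stained in one step after 5 days, and nuclei were counted. Relative viability is the nuclei count for treated wells divided by that for vehicle wells, reported as medians of duplicate plates.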

TGX 221 + Navitoclax = compound: CC1=CN2C(=O)C=C(N=C2C(=C1)C(C)NC3=CC=CC=C3)N4CCOCC4 [TGX 221] + CC1(C)CCC(c2ccc(Cl)cc2)=C(CN2CCN(c3ccc(C(=O)NS(=O)(=O)c4ccc(N[C@H](CCN5CCOCC5)CSc5ccccc5)c(S(=O)(=O)C(F)(F)F)c4)cc3)CC2)C1 [Navitoclax] (partner 0.5 µM)
Outline: as §1

[1] = compound: C1=CC=C(C(=C1)C2=CC=C(C=C2)C3=CSC4=C3C(=C(C(=O)N4)C#N)O)O + Cc1nc(Nc2ncc(C(=O)Nc3c(C)cccc3Cl)s2)cc(N2CCN(CCO)CC2)n1 [Dasatinib] (partner 0.075 µM)
Outline: as §1

Ricolinostat + AZD7762 = compound: O=C(CCCCCCNC(=O)c1cnc(N(c2ccccc2)c2ccccc2)nc1)NO [Ricolinostat] + NC(=O)Nc1cc(-c2cccc(F)c2)sc1C(=O)N[C@H]1CCCNC1 [AZD7762] (partner 0.2 µM)
Outline: as §1

Cell Line | relative viability (TGX 221 + Palbociclib; first compound 0.08 µM) | relative viability (TGX 221 + Palbociclib; first compound 0.253 µM) | relative viability (TGX 221 + Palbociclib; first compound 0.8 µM) | relative viability (TGX 221 + Palbociclib; first compound 2.53 µM) | relative viability (TGX 221 + Palbociclib; first compound 8 µM) | relative viability (TGX 221 + Navitoclax; first compound 0.08 µM) | relative viability (TGX 221 + Navitoclax; first compound 0.253 µM) | relative viability (TGX 221 + Navitoclax; first compound 0.8 µM) | relative viability (TGX 221 + Navitoclax; first compound 2.53 µM) | relative viability (TGX 221 + Navitoclax; first compound 8 µM) | relative viability ([1]; first compound 0.08 µM) | relative viability ([1]; first compound 0.253 µM) | relative viability ([1]; first compound 0.8 µM) | relative viability ([1]; first compound 2.53 µM) | relative viability ([1]; first compound 8 µM) | relative viability (Ricolinostat + AZD7762; first compound 0.08 µM) | relative viability (Ricolinostat + AZD7762; first compound 0.253 µM) | relative viability (Ricolinostat + AZD7762; first compound 0.8 µM) | relative viability (Ricolinostat + AZD7762; first compound 2.53 µM)
NCI-H647 | 0.296 | 0.297 | 0.283 | 0.232 | 0.275 | 1.08 | 0.781 | 0.943 | 0.88 | 0.622 | 0.153 | 0.189 | 0.191 | 0.183 | 0.1 | 0.35 | 0.359 | 0.322 | 0.241
NCI-H727 | 0.643 | 0.518 | 0.667 | 0.679 | 0.602 | 0.383 | 0.317 | 0.491 | 0.332 | 0.365 | 0.507 | 0.415 | 0.483 | 0.285 | 0.419 | 0.475 | 0.711 | 0.664 | 0.576
NCI-H838 | 0.213 | 0.187 | 0.19 | 0.188 | 0.179 | 1.08 | 0.977 | 1.05 | 0.888 | 0.779 | 0.251 | 0.295 | 0.317 | 0.267 | 0.269 | 0.827 | 0.941 | 0.963 | 0.958
NCI-H1355 | 0.366 | 0.348 | 0.372 | 0.338 | 0.302 | 0.88 | 0.747 | 0.764 | 0.598 | 0.707 | 0.619 | 0.668 | 0.708 | 0.64 | 0.639 | 0.689 | 0.853 | 0.674 | 0.575
NCI-H1395 | 0.609 | 0.537 | 0.51 | 0.467 | 0.487 | 1.02 | 0.907 | 0.986 | 0.957 | 0.763 | 0.382 | 0.368 | 0.45 | 0.381 | 0.421 | – | 0.362 | 0.395 | 0.37
NCI-H1437 | 0.294 | 0.317 | 0.324 | 0.276 | 0.295 | 1.05 | 1.07 | 1.11 | 1.07 | 0.893 | 0.32 | 0.363 | 0.344 | 0.456 | 0.371 | 1.12 | 0.977 | 1.16 | 1.01
NCI-H1651 | 0.525 | 0.465 | 0.505 | 0.489 | 0.44 | 0.977 | 0.964 | 0.948 | 0.734 | 0.733 | 0.386 | 0.371 | 0.436 | 0.378 | 0.26 | 0.429 | 0.485 | 0.367 | 0.302
NCI-H1666 | 0.679 | 0.599 | 0.638 | 0.667 | 0.674 | 0.935 | 0.759 | 0.749 | 0.844 | 0.927 | 0.6 | 0.858 | 0.987 | 0.903 | 0.722 | 0.705 | 0.886 | 0.714 | 0.768
NCI-H1734 | 0.235 | 0.332 | 0.351 | 0.317 | 0.289 | 0.809 | 0.747 | 0.784 | 0.698 | 0.765 | 0.396 | 0.474 | 0.452 | 0.489 | 0.455 | 0.45 | 0.68 | 0.372 | 0.235
NCI-H1755 | 0.36 | 0.422 | 0.385 | 0.421 | 0.436 | 0.948 | 0.949 | 0.891 | 0.606 | 0.444 | 0.396 | 0.466 | 0.349 | 0.368 | 0.423 | 0.38 | 0.444 | 0.439 | 0.422
NCI-H1793 | 0.282 | 0.277 | 0.271 | 0.273 | 0.223 | 0.405 | 0.328 | 0.286 | 0.283 | 0.176 | 0.356 | 0.354 | 0.419 | 0.4 | 0.326 | 0.387 | 0.414 | 0.314 | 0.206
NCI-H1915 | 0.491 | 0.497 | 0.536 | 0.498 | 0.473 | 0.788 | 0.765 | 0.779 | 0.79 | 0.775 | 0.335 | 0.344 | – | 0.314 | 0.34 | 0.652 | 0.653 | 0.685 | 0.573
